Laboratory results: ChEMBL document CHEMBL3632524, “3-(2,6-Dichloro-benzyloxy)-11-oxo-olean-12-ene-29-oic acid, a semisynthetic derivative of glycyrrhetic acid: synthesis, antiproliferative, apoptotic and anti-angiogenesis activity” (Medchemcomm, 2015)
pIC50: −log10 of the molar value.

What was measured:
Assay type in all cases: functional, cell-based
[1] = Antiproliferative activity against human MIAPaCa2 cells assessed as cell viability after 48 hrs by MTT assay; details: MIA PaCa-2, 48 h
[2] = system: HepG2; assay: Antiproliferative activity against human HepG2 cells assessed as cell viability after 48 hrs by MTT assay; details: HepG2, 48 h
[3] = system: PC-3; assay: Antiproliferative activity against human PC3 cells assessed as cell viability after 48 hrs by MTT assay; details: PC-3, 48 h
[4] = system: HL-60; assay: Cytotoxicity against human HL60 cells

pIC50 [2]	pIC50 [3]	Compound	pIC50 [1]	pIC50 [4]
< 4.00	5.00	CC1(C)[C@@H](OCc2c(F)cccc2Cl)CC[C@]2(C)[C@H]3C(=O)C=C4[C@@H]5C[C@@](C)(C(=O)O)CC[C@]5(C)CC[C@@]4(C)[C@]3(C)CC[C@@H]12	4.96	–
< 4.70	< 4.70	CC1(C)[C@@H](OCc2ccc(C(F)(F)F)cc2C(F)(F)F)CC[C@]2(C)[C@H]3C(=O)C=C4[C@@H]5C[C@@](C)(C(=O)O)CC[C@]5(C)CC[C@@]4(C)[C@]3(C)CC[C@@H]12	< 4.70	–
< 4.70	< 4.70	CC1(C)[C@@H](O)CC[C@]2(C)[C@H]3C(=O)C=C4[C@@H]5C[C@@](C)(C(=O)O)CC[C@]5(C)CC[C@@]4(C)[C@]3(C)CC[C@@H]12 [ENOXOLONE]	< 4.70	4.20
< 4.70	< 4.70	CC(C)=CCO[C@H]1CC[C@]2(C)[C@H]3C(=O)C=C4[C@@H]5C[C@@](C)(C(=O)O)CC[C@]5(C)CC[C@@]4(C)[C@]3(C)CC[C@H]2C1(C)C	< 4.70	–
< 4.00	4.74	CC1(C)[C@@H](OCc2ccc(Cl)cc2Cl)CC[C@]2(C)[C@H]3C(=O)C=C4[C@@H]5C[C@@](C)(C(=O)O)CC[C@]5(C)CC[C@@]4(C)[C@]3(C)CC[C@@H]12	< 4.00	–
< 4.70	< 4.70	COc1ccc(CO[C@H]2CC[C@]3(C)[C@H]4C(=O)C=C5[C@@H]6C[C@@](C)(C(=O)O)CC[C@]6(C)CC[C@@]5(C)[C@]4(C)CC[C@H]3C2(C)C)cc1OC	< 4.70	–
< 4.70	< 4.70	CC(C)=CCC/C(C)=C\CO[C@H]1CC[C@]2(C)[C@H]3C(=O)C=C4[C@@H]5C[C@@](C)(C(=O)O)CC[C@]5(C)CC[C@@]4(C)[C@]3(C)CC[C@H]2C1(C)C	< 4.70	–
< 4.70	< 4.70	CC1(C)[C@@H](OCc2ccc(Br)cc2)CC[C@]2(C)[C@H]3C(=O)C=C4[C@@H]5C[C@@](C)(C(=O)O)CC[C@]5(C)CC[C@@]4(C)[C@]3(C)CC[C@@H]12	< 4.70	–
< 4.70	< 4.70	CC1(C)[C@@H](OCc2ccc3c(c2)OCO3)CC[C@]2(C)[C@H]3C(=O)C=C4[C@@H]5C[C@@](C)(C(=O)O)CC[C@]5(C)CC[C@@]4(C)[C@]3(C)CC[C@@H]12	< 4.70	–
< 4.70	< 4.70	CC1(C)[C@@H](OCc2ccccc2I)CC[C@]2(C)[C@H]3C(=O)C=C4[C@@H]5C[C@@](C)(C(=O)O)CC[C@]5(C)CC[C@@]4(C)[C@]3(C)CC[C@@H]12	< 4.70	–
< 4.00	7.92	CC(=O)O[C@H]1C(=O)[C@@]2(C)[C@H]([C@H](OC(=O)c3ccccc3)[C@]3(O)C[C@H](OC(=O)[C@H](O)[C@@H](NC(=O)c4ccccc4)c4ccccc4)C(C)=C1C3(C)C)[C@]1(OC(C)=O)CO[C@@H]1C[C@@H]2O [PACLITAXEL]	7.00	–
